The text below walks through data of article PMC9363482, “The crystal structure of Cry78Aa from Bacillus thuringiensis provides insights into its insecticidal activity” (Communications Biology, 2022).

The conditions of series [1]: other: SDS-PAGE under mild denaturing conditions.
Series [2] addresses T1, Cry78Aa (Cry78Aa1) (Bacillus thuringiensis, UniProt A0A3S6Q0Y2).
T1 construct: ITC section says only 'Cry78Aa protein'
Conditions: 20 mM Tris-HCl pH 8.0, 25 °C; one-site binding model; 50 mM sugar into 150 µM protein.

T1 sequence (A0A3S6Q0Y2 1-359 limits assumed): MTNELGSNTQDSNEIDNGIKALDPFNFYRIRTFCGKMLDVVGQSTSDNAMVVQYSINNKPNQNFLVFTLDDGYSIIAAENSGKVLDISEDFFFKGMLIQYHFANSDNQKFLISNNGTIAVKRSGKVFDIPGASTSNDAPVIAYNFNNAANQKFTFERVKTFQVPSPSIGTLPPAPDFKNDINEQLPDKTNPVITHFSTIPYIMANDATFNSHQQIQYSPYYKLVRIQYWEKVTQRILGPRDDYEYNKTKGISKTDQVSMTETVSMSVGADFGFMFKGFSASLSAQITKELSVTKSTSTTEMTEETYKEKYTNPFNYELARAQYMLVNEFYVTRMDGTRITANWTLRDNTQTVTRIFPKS

For the compound Cry78Aa_(155-359), the “percent of the sample as oligomers or aggregates in 0.1% SDS” value in series [1] was ~30% of the total sample loaded onto each lane.

As to `OC[C@H]1O[C@@H](O[C@H]2[C@H](O)[C@@H](O)C(O)O[C@@H]2CO)[C@H](O)[C@@H](O)[C@H]1O` (stereo partly drawn) [lactose], the Kd in series [2] is ~10.2 mM.

As to `CC(=O)N[C@H]1C(O)O[C@H](CO)[C@H](O)[C@@H]1O` (stereo partly drawn) [GalNAc], the Kd in series [2] was ~9.8 mM.
